The target of the experiment is Pantothenate synthetase (Mycobacterium tuberculosis (strain ATCC 25618 / H37Rv)) (UniProt P9WIL5). As to the kind of experiment: Coupled enzyme confirmation of inhibitors against recombinant Mtb PanC (AID 375). The following applies: coupled enzyme assay, measured here: PanC IC50 repeat trials.

Structures are written as SMILES.

Drawing on PubChem BioAssay AID375 (SRMLSC, 2006), this text covers IC50 for 23 molecules.

Chain of Pantothenate synthetase (Mycobacterium tuberculosis (strain ATCC 25618 / H37Rv)) (P9WIL5 whole entry, looked up): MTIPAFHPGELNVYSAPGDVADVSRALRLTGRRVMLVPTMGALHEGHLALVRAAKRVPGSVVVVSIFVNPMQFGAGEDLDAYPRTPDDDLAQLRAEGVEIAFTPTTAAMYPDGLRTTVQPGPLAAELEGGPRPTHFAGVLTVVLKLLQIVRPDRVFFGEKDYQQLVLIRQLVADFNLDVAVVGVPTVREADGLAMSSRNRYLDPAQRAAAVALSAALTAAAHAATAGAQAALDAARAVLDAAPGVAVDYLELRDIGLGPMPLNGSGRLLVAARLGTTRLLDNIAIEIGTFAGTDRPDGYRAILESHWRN

As a reminder, the IC50 is the concentration that inhibits the measured activity by half. Consider `Cc1ccc(Cn2ccc(NC(=O)c3noc4c3CCCC4)n2)cc1`, for which the IC50 was > 100 µM.

Take `Cc1ccc(Cn2ccc(NC(=O)c3cc(-c4ccc(Cl)cc4)on3)n2)cc1`: the IC50 is > 100 µM.

`Cc1ccc(Cn2ccc(NC(=O)c3cc(-c4ccco4)on3)n2)cc1`: the IC50 is > 100 µM. Consider `Cc1cc(NC(=O)c2cc(-c3cccs3)on2)nn1Cc1ccc(Cl)cc1`, for which the IC50 was > 100 µM. The result for `COc1ccc(-c2cc(C(=O)Nc3cc(C)n(Cc4ccc(Cl)cc4)n3)no2)cc1OC` reads > 100 µM; that for `Cc1cc(C(=O)Nc2cc(C)n(Cc3ccc(Cl)cc3)n2)no1`, > 100 µM. The result for `Cc1ccccc1Cn1nc(C)c(NC(=O)c2noc3c2CC(C(C)(C)C)CC3)c1C` (stereo not drawn) reads > 100 µM; that for `Cc1ccc(Cn2ccc(NC(=O)c3cc(-c4ccc(Br)cc4)on3)n2)cc1`, > 100 µM. The result for `COc1cccc(-c2cc(C(=O)Nc3cc(C)n(Cc4ccc(Cl)cc4)n3)no2)c1` reads > 100 µM; that for `COc1ccccc1-c1cc(C(=O)Nc2cc(C)n(Cc3ccc(Cl)cc3)n2)no1`, > 100 µM.

Regarding `COc1ccc2c(c1)CCc1c(C(=O)Nc3cc(C)n(Cc4ccc(Cl)cc4)n3)noc1-2`, the IC50 was > 100 µM. The result for `Cc1ccc(Cn2ccc(NC(=O)c3cc(-c4ccc(F)cc4)on3)n2)cc1` reads > 100 µM. The result for `Cc1cc(NC(=O)c2noc3c2CCCCC3)nn1Cc1ccc(Cl)cc1` reads > 100 µM; that for `COc1ccc(OC)c(-c2cc(C(=O)Nc3cc(C)n(Cc4ccc(Cl)cc4)n3)no2)c1`, > 100 µM. Regarding `CC(C)(C)C1CCc2onc(C(=O)Nc3cnn(Cc4ccc(F)cc4)c3)c2C1` (stereo not drawn), the IC50 is 1.71 µM. The result for `Cc1cc(NC(=O)c2noc3c2CCCC3)nn1Cc1ccc(Cl)cc1` reads > 100 µM; that for `Cc1ccccc1Cn1cc(NC(=O)c2noc3c2CC(C(C)(C)C)CC3)cn1` (stereo not drawn), 2.56 µM; that for `Cc1ccc(Cn2ccc(NC(=O)c3cc(-c4cccs4)on3)n2)cc1`, > 100 µM. The result for `Cc1cc(NC(=O)c2cc(-c3ccco3)on2)nn1Cc1ccc(Cl)cc1` reads > 100 µM.

Regarding `COc1ccc2c(c1)CCc1c(C(=O)Nc3ccn(Cc4ccc(C)cc4)n3)noc1-2`, the IC50 is > 100 µM.

For the molecule `Cc1ccc(Cn2ccc(NC(=O)c3cc(-c4ccccc4)on3)n2)cc1`, the IC50 was > 100 µM. On to `Cc1ccc(Cn2ccc(NC(=O)c3noc4c3CCCCC4)n2)cc1`, for which the IC50 was > 100 µM.

Take `Cc1ccc(Cn2ccc(NC(=O)c3cc(-c4cccc(Cl)c4)on3)n2)cc1`: the IC50 was > 100 µM.
